The text below walks through data of US10059720B2, “Pyridine derivative” (Astellas Pharma Inc., priority 2014, dated 2018).

Data set [1] in a line: Antidiuresis test in continuously hydrated rats with additional water loading (oral administration). It counts as in vivo, Male Wistar rats. As to conditions: for change of plasma sodium level (in words): after three hours and four hours of the administration, additional water loads; for urine production after additional water loads: groups with additional water loads (15 mL/kg at 2 h and 3 h); for urine production after additional water loads / plasma sodium level, 3 hours after administration / plasma sodium level, 4 hours after administration / urine production: EX-a 100 mg/kg, EX-b 30 mg/kg; for urine production after additional water loads / urine production: dDAVP 30 μg/kg oral; for plasma sodium level, 3 hours after administration / plasma sodium level, 4 hours after administration: groups with additional water loads, oral, dDAVP 30 μg/kg; for urine production: groups without additional water loads, after two hours of the administration, maintained until four hours. As to the method: FIG. 1 is a graph showing temporal changes in urine volumes of individual groups in the pharmacological test (4): antidiuresis test in continuously hydrated rats with additional water loading. The vertical axis represents urine volume (mL/30 min) and the horizontal axis represents elapsed time (hr) from the administration of the test compound. Groups represented by “ . . . +Water” are water-loaded groups. The arrows in the horizontal axis represent the time points of additional water-loading.
(4) Antidiuresis Test in Continuously Hydrated Rats with Additional Water Loading (Oral Administration)
Male Wistar rats were used in the test. Initially, water load with 15 mL/kg of distilled water was forcedly administered to the rats. Every 30 minutes after loading water, urine volume collected during 30 minutes was measured and distilled water was forcedly administered to the rats in an amount equal to the urine volume excreted during the last 30 minutes. This water load procedure was repeated to the termination of the test to maintain the diuretic state. […] The individual groups were further divided into two subgroups, and additional distilled water of 15 mL/kg load was forcedly administered to one of the subgroups two times, i.e. at two hours and three hours after the administration. For comparison, the Vehicle group administered only with the vehicle was also subjected to the additional administrations of water load. Blood was collected from a half of the rats in each group subjected to additional administrations of water load, at three hours after the administration (immediately before the second additional water load) and from the other half at four hours after the administration, and plasma sodium levels were measured with an automatic electrolyte analyzer to determine the plasma sodium levels at three hours and four hours after the administration, respectively (each group consisted of seven to eight rats). Changes in the urine volume in individual groups are shown in FIG. 1, and the plasma sodium levels of the group administered with additional water loads are shown in Table 4.

The next data set addresses IRAP (Rattus norvegicus (Rat), UniProt P97629). Nature of the data set: Inhibition of IRAP activity (AVP degradation by rat epididymal fat pad microsomes, MALDI-MS). As to conditions: read-out: IRAP IC50.
The mark [2] stands for this setting: rat fat pad microsomes, AVP 25 μM, 1 h at 37° C.

Molecules are shown by their SMILES. Where a name gives a salt, the structure may show the parent alone. Read-outs that look alike come from different tables or passages of the source.

Chain of IRAP (P97629 whole entry): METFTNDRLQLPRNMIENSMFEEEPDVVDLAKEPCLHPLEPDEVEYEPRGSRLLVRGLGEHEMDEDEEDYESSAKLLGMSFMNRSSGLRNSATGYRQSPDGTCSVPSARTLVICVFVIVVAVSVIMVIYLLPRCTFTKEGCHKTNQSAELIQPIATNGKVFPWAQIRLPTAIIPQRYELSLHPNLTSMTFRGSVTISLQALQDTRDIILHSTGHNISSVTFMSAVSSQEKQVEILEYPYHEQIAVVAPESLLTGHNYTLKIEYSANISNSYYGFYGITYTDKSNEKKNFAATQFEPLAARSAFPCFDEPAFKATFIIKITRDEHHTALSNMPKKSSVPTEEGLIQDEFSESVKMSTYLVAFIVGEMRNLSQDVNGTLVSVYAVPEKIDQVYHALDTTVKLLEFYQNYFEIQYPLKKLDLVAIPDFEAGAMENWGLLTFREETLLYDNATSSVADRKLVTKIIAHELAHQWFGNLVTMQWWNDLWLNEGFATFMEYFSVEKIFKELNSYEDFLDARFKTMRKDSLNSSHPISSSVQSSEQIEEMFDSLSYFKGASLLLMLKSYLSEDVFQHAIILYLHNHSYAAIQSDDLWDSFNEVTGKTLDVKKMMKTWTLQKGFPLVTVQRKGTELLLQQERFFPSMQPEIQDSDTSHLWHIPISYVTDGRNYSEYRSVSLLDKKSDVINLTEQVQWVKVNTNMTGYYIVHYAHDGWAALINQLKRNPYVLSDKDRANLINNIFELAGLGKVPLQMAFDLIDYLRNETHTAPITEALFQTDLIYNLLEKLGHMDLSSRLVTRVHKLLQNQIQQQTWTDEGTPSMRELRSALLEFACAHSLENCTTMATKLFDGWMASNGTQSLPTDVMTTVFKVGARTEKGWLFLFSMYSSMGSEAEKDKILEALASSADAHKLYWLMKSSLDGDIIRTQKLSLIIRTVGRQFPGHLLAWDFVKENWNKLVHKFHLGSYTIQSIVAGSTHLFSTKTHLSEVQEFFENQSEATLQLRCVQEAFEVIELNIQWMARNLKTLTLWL

On to `CC(C)C[C@H](N)[C@](O)(Cc1cc(O[C@H]2CC[C@H](C)CC2)ccn1)C(=O)O` (relative stereo) [EX-a, (2R,3S)-3-amino-2-hydroxy-5-methyl-2-({4-[(trans-4-methylcyclohexyl)oxy]pyridin-2-yl}methyl)hexanoic acid], for which, in data set [1], the “change of plasma sodium level (in words)” value is on record as “slightly decreased”; the “urine production after additional water loads” value is recorded as “resumed after administration of the additional water loads”; the “plasma sodium level, 3 hours after administration” value (shortened to “plasma sodium level, 3 hours”) was found to be 134.9 ± 0.4 mmol/L; the “plasma sodium level, 4 hours after administration” value (“plasma sodium level, 4 hours” below) was 133.2 ± 0.7 mmol/L. Further, the urine production result in data set [1] was “almost stopped”.

In the case of `CC(C)C[C@H](N)[C@](O)(Cc1cc(O)ccn1)C(=O)O` [7(2), (2R,3S)-3-amino-2-hydroxy-2-[(4-hydroxypyridin-2-yl)methyl]-5-methylhexanoic acid], the IC50 on IRAP (setting [2]) was 200 nM.

Consider `CCSC[C@H](N)[C@](O)(Cc1cc(O[C@H]2CC[C@H](C)CC2)ccn1)C(=O)O` [EX-b, (2R,3R)-3-amino-4-(ethylsulfanyl)-2-hydroxy-2-({4-[(trans-4-methylcyclohexyl)oxy]pyridin-2-yl}methyl)butanoic acid], for which, in data set [1], the “change of plasma sodium level (in words)” value is recorded as “slightly decreased”; the “urine production after additional water loads” value is recorded as “resumed after administration of the additional water loads”; the “plasma sodium level, 3 hours” value turned out to be 140.4 ± 0.4 mmol/L; the “plasma sodium level, 4 hours” value worked out at 139.2 ± 0.5 mmol/L. Also, the urine production entry in data set [1] is on record as “almost stopped”.

Consider `CC(C)C[C@H](N)[C@@]1(Cc2cc(O[C@H]3CC[C@H](C)CC3)ccn2)OC(C)(C)OC1=O` [Example 8, (5R)-5-[(1S)-1-amino-3-methylbutyl]-2,2-dimethyl-5-({4-[(trans-4-methylcyclohexyl)oxy]pyridin-2-yl}methyl)-1,3-dioxolan-4-one dihydrochloride], for which the IC50 at IRAP (setting [2]) is 170 nM.

With `COc1ccnc(C[C@](O)(C(=O)O)[C@@H](N)CC(C)C)c1C` [Example 22], the IC50 at IRAP (setting [2]) stood at 250 nM.

With `N[C@@H](c1ccc(C2CC2)cc1)[C@](O)(Cc1cc(OC2CCCCC2)ccn1)C(=O)O` [Example 23], the IC50 on IRAP (setting [2]) amounted to 8.2 nM.

As for `N[C@@H](c1ccc(S(=O)(=O)C2CC2)cc1)[C@](O)(Cc1cc(OC2CCCCC2)ccn1)C(=O)O` [Example 24], the IC50 on IRAP (setting [2]) worked out at 6.2 nM.

Regarding `COCc1ccc(OC[C@H](N)[C@](O)(Cc2cc(OC3CCCCC3)ccn2)C(=O)O)cc1` [Example 30], the IC50 at IRAP (setting [2]) worked out at 11 nM.

In the case of `COc1cc(F)cc(OC[C@H](N)[C@](O)(Cc2cc(OC3CCCCC3)ccn2)C(=O)O)c1` [Example 31], the IC50 on IRAP (setting [2]) stood at 27 nM.

As to `CC(C)C[C@H](N)[C@](O)(Cc1cc2c(cn1)ncn2CCC1CCCCC1)C(=O)O` [Example 33], on IRAP (setting [2]), the IC50 turned out to be 2.5 nM.

`N[C@@H](c1ccc(-c2ccccc2)cc1)[C@](O)(Cc1cc(OC2CCCCC2)ccn1)C(=O)O` [Example 36]: the IC50 at IRAP (setting [2]) was found to be 4.9 nM.

`N[C@@H](/C=C/c1ccccc1)[C@](O)(Cc1cc(OC2CCCCC2)ccn1)C(=O)O` [Example 40]: the IC50 on IRAP (setting [2]) was determined as 8 nM.

On to `CS(=O)(=O)c1ccc(-c2ccc([C@H](N)[C@](O)(Cc3cc(OC4CCCCC4)ccn3)C(=O)O)cc2)cc1` [Example 45], for which the IC50 at IRAP (setting [2]) turned out to be 0.42 nM.

Regarding `N[C@@H](c1ccc(N2CCOCC2)cc1)[C@](O)(Cc1cc(OC2CCCCC2)ccn1)C(=O)O` [Example 48], the IC50 at IRAP (setting [2]) worked out at 5.2 nM.

As for `COCc1ccc([C@H](N)[C@](O)(Cc2cc(OC3CCCCC3)ccn2)C(=O)O)cc1` [Example 50], the IC50 at IRAP (setting [2]) was found to be 14 nM.

For `N[C@@H](COCc1ccccc1)[C@](O)(Cc1cc(OC2CCCCC2)ccn1)C(=O)O` [Example 51], the IC50 at IRAP (setting [2]) amounted to 13 nM.

Turning to `COc1cc(C[C@](O)(C(=O)O)[C@@H](N)CC(C)C)ncc1Br` [Example 53], the IC50 on IRAP (setting [2]) worked out at 290 nM.

With `COc1cc(C[C@](O)(C(=O)O)[C@@H](N)CC(C)C)ncc1COCc1ccccc1` [Example 57], the IC50 at IRAP (setting [2]) worked out at 130 nM.

`CC(C)C[C@H](N)[C@](O)(Cc1cc2c(cn1)OCCO2)C(=O)O` [Example 62]: on IRAP (setting [2]), the IC50 came to 290 nM.

For `CC(C)CC[C@H](N)[C@](O)(Cc1cc(OC2CCCCC2)ccn1)C(=O)O` [Example 66], the IC50 on IRAP (setting [2]) was found to be 1.9 nM.

Consider `N[C@@H](c1ccc(Br)cc1)[C@](O)(Cc1cc(OC2CCCCC2)ccn1)C(=O)O` [Example 68], for which the IC50 on IRAP (value marked *: measured using a dihydrochloride salt of the compound of the Example) amounted to 5.4 nM.

As to `N[C@@H](COc1cccc(Br)c1)[C@](O)(Cc1cc(OC2CCCCC2)ccn1)C(=O)O` [Example 70], the IC50 on IRAP (setting [2]) was determined as 13 nM.

Regarding `NC(COc1ccccc1Br)C(O)(Cc1cc(OC2CCCCC2)ccn1)C(=O)O` (centres unmarked) [Example 71], on IRAP (setting [2]), the IC50 was 15 nM.

For `N[C@@H](COCCC(F)(F)F)[C@](O)(Cc1cc(OC2CCCCC2)ccn1)C(=O)O` [Example 74], the IC50 on IRAP (setting [2]) turned out to be 5.3 nM.

Regarding `COCCCCC[C@H](N)[C@](O)(Cc1cc(OC2CCCCC2)ccn1)C(=O)O` [Example 75], at IRAP (setting [2]), the IC50 was found to be 1.2 nM.

Regarding `Cc1ccc(OC[C@H](N)[C@](O)(Cc2cc(OC3CCCCC3)ccn2)C(=O)O)nc1` [Example 77], the IC50 on IRAP (setting [2]) is 8.8 nM.

`N[C@@H](COC1CCCCC1)[C@](O)(Cc1cc(OCCC2CC2)ccn1)C(=O)O` [Example 79]: the IC50 on IRAP (setting [2]) was found to be 33 nM.

Turning to `C[C@H]1CC[C@H](Oc2ccnc(C[C@](O)(C(=O)O)[C@@H](N)Cn3cccn3)c2)CC1` [Example 85], the IC50 on IRAP (setting [2]) is 110 nM.

For `N[C@@H](COc1ccc(F)cc1)[C@](O)(Cc1cc(NC2CCCCC2)ccn1)C(=O)O` [Example 91], the IC50 at IRAP (setting [2]) was 15 nM.

Take `CC(C)C[C@H](N)[C@](O)(Cc1cc(OCCOC2CCCCC2)ccn1)C(=O)O` [Example 97]: the concentration for half-maximal inhibition (IC50) at IRAP (setting [2]) was determined as 2.8 nM.

Regarding `COc1cccc(Oc2ccnc(C[C@](O)(C(=O)O)[C@@H](N)CC(C)C)c2)c1` [Example 101], the IC50 at IRAP (setting [2]) was 200 nM.

For the compound `NC(=O)CC[C@@H]1NC(=O)[C@H](Cc2ccccc2)NC(=O)[C@H](Cc2ccc(O)cc2)NC(=O)CCSSC[C@@H](C(=O)N2CCC[C@H]2C(=O)N[C@H](CCCN=C(N)N)C(=O)NCC(N)=O)NC(=O)[C@H](CC(N)=O)NC1=O` [dDAVP, Desmopressin, reference compound], in data set [1], the “change of plasma sodium level (in words)” value is recorded as “more significant decreases”; the “urine production after additional water loads” value is on record as “not resumed”; the “plasma sodium level, 3 hours” value is recorded as 132.0 ± 0.4 mmol/L; the “plasma sodium level, 4 hours” value worked out at 128.0 ± 0.3 mmol/L. For the same compound, the urine production entry in data set [1] was “almost stopped”.

In general, IC50 refers to the concentration needed to halve the response being measured.
